Laboratory results as given in patent US20040097539A1, “Hsp inductor” (priority 2001, published 2004).

Key:
human COX-1 = target: T1, human COX-1 (Homo sapiens, UniProt P23219); assay: COX-1 inhibiting activity (chemiluminescence, microsome fractions); assay type: biochemical; details: microsome fractions from COX-1 expressing Sf-21 cells, 37° C. 25 min preincubation, arachidonic acid
T1 construct: made in house; host or cells: Sf-21 insect cells, recombinant baculovirus BAC-COX1 (pFASTBAC1), microsome fraction
T1 sequence (P23219 24-599): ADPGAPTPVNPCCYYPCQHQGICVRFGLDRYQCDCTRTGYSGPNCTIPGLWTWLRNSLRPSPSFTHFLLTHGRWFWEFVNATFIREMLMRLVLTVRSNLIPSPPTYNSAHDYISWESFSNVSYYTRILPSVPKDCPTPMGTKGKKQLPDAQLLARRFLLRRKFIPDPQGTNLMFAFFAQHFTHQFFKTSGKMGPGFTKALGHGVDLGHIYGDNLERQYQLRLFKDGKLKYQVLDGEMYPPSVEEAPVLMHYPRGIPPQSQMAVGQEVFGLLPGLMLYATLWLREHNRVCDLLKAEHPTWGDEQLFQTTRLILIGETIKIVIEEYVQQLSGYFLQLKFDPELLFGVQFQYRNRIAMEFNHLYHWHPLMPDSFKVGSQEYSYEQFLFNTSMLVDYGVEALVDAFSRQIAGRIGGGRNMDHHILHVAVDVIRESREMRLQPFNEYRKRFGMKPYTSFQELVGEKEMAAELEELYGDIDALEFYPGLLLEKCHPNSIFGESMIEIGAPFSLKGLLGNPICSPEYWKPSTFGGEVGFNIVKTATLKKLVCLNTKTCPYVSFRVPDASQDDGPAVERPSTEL
Protocol: A 1.8 kb DNA fragment containing human COX-1 cDNA (FASEB J., 5 (9), 2304-2312 (1991)) prepared by the PCR method was inserted into plasmid pFASTBAC1 (CIBCOBRL) to obtain a plasmid pFBCOX1.
Using the plasmid pFBCOX1 and BAC-TO-BAC Baculovirus Expression System (GIBCOBRL), a virus stock BAC-COX1 of the recombinant baculovirus was prepared.
Sf-21 cells were inoculated in 125 mL of Sf-900 II SFM medium (GIBCOBRL) at a concentration of 1×10^6 cells/mL, and the medium was incubated at 27° C. for 24 hrs. 0.75 mL of the virus stock BAC-COX1 of the recombinant baculovirus was added, and the mixture was incubated for additional 72 hrs. The cells were separated from the medium by centrifugation (3000 rpm, 10 min.), and washed with PBS twice. The cells were suspended in 10 mL of a lysis buffer (0.1 M Tris-HCl (pH 7.4), 5 mM EDTA), and were treated with a homogenizer (POLYTRON) three times at 20000 rpm for 20 seconds so that the cells were crushed. The supernatant obtained after centrifugation (2000 rpm, 10 min.) was further centrifuged (40000 rpm, 45 min.) to give a precipitate, which was resuspended in a Lysis buffer (0.1 M Tris-HCl (pH 7.4), 5 mM EDTA), and the suspension was stored at −80° C.
(§1) To a mixture of […] of a reaction buffer previously concentrated 10 times (1 M Tris-HCl (pH 8.0), 50 mM EDTA, 1.0% Tween 20, 50 mM luminol, 100 mM hematin), 20 mL of the microsome fractions (COX-1: 40 mg, COX-2: 20 mg), and […] of distilled water, a sample compound dissolved in DMF (5 mL) was added, and the mixture was left at 37° C. for 25 min. The reaction was started by the addition of 20 mM arachidonic acid ([…]), and chemiluminescence amount during the 10-second period after the addition of arachidonic acid was determined by the use of Lumistar (BMG Lab technologies, GmbH). The inhibition rate was calculated, regarding that the enzyme activity when DMF ([…]) was added was 100%, and the enzyme activity was 0% when 4 mM flurbiprofen (5 mL) was added.

Male SD rats [1] = assay: Carrageenin edema test; assay type: in vivo; details: oral, 1 hr before 1% carrageenin in footpad, foot volume after 2 hr and 3 hr
Protocol: Male SD rats (6-week-old, CLEA Japan) were used (6 rats per group). The carrageenin edema test was performed in accordance with the method of Winter et al. (Proc. Soc. Exp. Biol. Med., 111, 544-547, 1962). The volume of the footpad of the right hind limb was measured. Then, the test compound was orally administered (1.0 mL/100 g body weight), and immediately thereafter, water was orally administered to 5 mL/rat. Vehicle alone was orally administered to control group. After 1 hr., 0.05 mL of saline containing 1% carrageenin was subcutaneously injected into the footpad of the right hind limb to induce edema. After 2 hr. and 3 hr., the volume of the footpad of the right hind limb was measured. For the effects of the compound, the difference in the volume of the foot before and 2 hr. and 3 hr. after the carrageenin injection was determined, from which inhibitory rate (%) relative to the control group was calculated, and ID30 was determined.

human COX-2 = target: T2, human COX-2 (Homo sapiens, UniProt P35354); assay: COX-2 inhibiting activity (chemiluminescence, microsome fractions); assay type: biochemical; details: microsome fractions from COX-2 expressing Sf-21 cells, 37° C. 25 min preincubation, arachidonic acid
T2 construct: made in house; host or cells: Sf-21 insect cells, recombinant baculovirus BAC-COX2 (pFASTBAC1), microsome fraction
T2 sequence (P35354 18-604): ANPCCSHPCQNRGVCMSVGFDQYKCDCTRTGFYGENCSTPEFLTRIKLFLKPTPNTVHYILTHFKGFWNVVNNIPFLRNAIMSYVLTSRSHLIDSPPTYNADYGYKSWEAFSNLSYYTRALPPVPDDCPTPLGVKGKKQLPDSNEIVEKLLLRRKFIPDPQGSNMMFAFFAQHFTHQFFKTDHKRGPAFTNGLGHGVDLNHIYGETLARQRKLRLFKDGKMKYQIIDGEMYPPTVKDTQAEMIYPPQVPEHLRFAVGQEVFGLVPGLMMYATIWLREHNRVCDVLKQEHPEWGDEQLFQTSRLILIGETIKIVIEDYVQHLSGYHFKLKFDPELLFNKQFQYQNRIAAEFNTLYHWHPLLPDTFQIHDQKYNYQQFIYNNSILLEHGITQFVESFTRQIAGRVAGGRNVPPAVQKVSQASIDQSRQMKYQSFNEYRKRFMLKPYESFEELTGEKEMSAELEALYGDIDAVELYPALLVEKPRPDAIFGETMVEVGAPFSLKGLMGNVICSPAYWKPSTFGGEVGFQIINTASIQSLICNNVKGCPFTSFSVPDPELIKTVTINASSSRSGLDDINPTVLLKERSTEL
Protocol: A 1.8 kb DNA fragment containing human COX-2 cDNA (Proc. Natl. Acad. Sci. U.S.A., 89 (16), 7384-7388-(1992)) prepared by the PCR method was inserted into plasmid pFASTBAC1 (CIBCOBRAL) to obtain a plasmid pFBCOX2.
Using the plasmid pFBCOX2 and BAC-TO-BAC Baculovirus Expression System (GIBCOBRAL), a virus stock BAC-COX2 of the recombinant baculovirus was prepared.
Sf-21 cells were inoculated in 125 mL of LSf-900 II SFM medium (GIBCOBRAL) at a concentration of 1×10^6 cells/mL, and the medium was incubated at 27° C. for 24 hrs. 0.75 mL of the virus stock BAC-COX2 of the recombinant baculovirus was added, and was incubated for additional 72 hrs. The cells were separated from the medium by centrifugation (3000 rpm, 10 min.), and washed twice with PBS. The cells were suspended in 10 mL of a Lysis buffer (0.1 M Tris-HCl (pH 7.4), 5 mM EDTA), and were treated with a homogenizer (POLYTRON), three times at 20000 rpm for 20 sec. so that the cells were crushed. The supernatant thus obtained after centrifugation (2000 rpm, 10 min.) was further centrifuged (40000 rpm, 45 min.) to obtain a precipitate, which was resuspended in a Lysis buffer (0.1 M Tris-HCl (pH 7.4), 5 mM EDTA), and the suspension was stored at −80° C.
as §1

Male ICR-mice = assay: Acetic acid rising method (analgesic activity); assay type: in vivo; details: oral, 30 min before 0.6% acetic acid i.p., rising and stretching counted for 20 min
Protocol: Male ICR-mice (5 weeks old, CLEA Japan) were used (1 group, 10 mice), and a sample was orally administered (0.2 mL/10 g, b.w.). After 30 min., 0.6% acetic acid solution was injected to mice intraperitoneally (0.1 mL/10 g, b.w.), and the mice were immediately transferred into an observation cage made of a transparent acrylic resin. The number of mice rising and stretching during the following period of 20 min. was counted. The repression rate (%) was calculated by comparing the average numbers between the sample groups and the control groups and ID50 value was calculated.

HSP27 gene expression = assay: HSP27-inducing activity in gastric mucosa (TaqMan PCR); assay type: in vivo; details: rats, oral 30 mg/ml, gastric mucosa 2 hr after administration
Protocol: Compound A (30 mg/ml) and vehicle were orally administered to rats. After 2 hr., stomach was excised from the rats, opened and washed with ice-cooled physiological saline. Gastric mucosa was taken from the stomach using sterilized cover glass, and immediately suspended in ISOGEN (Wako Pure Chemical Industries, Ltd.). Total RNA was prepared from the gastric mucosa according to instructions, and purified by RNAeasy Midi Kit (QIAGEN). Then cDNA was synthesized from the total RNA using TaqMan Gold RT-PCR Kit (Applied Biosystems), and subjected to TaqMan PCR using ABI7700 (Applied Biosystems), based on which the amount of HSP 27 gene expression was determined. Forward primer used was 5′-[…]-3′ (SEQ ID NO:1), Reverse primer used was 5′-[…]-3′ (SEQ ID NO:2), and TaqMan probe used was 5′-[…]-3′ (SEQ ID NO:3) labeled with FAM (6-carboxyfluorescein). Additionally, the amount of GAPDH gene expression was determined using TaqMan Rodent GAPDH Control Reagents VIC probe (Applied Biosystems) and G3PDH cDNA Control probe (CLONTECH), and the amount was employed as an internal control. The amount of HSP27 gene expression is shown by the values calibrated with an amount of internal control (i.e., GAPDH gene) expression (Table 4).

Male SD rats [2] = assay: Test for gastric mucosa disorder; assay type: in vivo; details: oral 300 mg/kg, stomach examined after 24 hr
Protocol: Male SD rats (6 rats, 7 weeks old, CLEA Japan) were used. The test compound was orally administered (5 mL/kg, b.w.) to the rats after 24 hr-fasting or without fasting. After 23.5 hrs., the rats were intravenously injected with Evan's Blue (0.5% Evan's Blue/saline, 1 mL/rat) without anesthesia. After 30 min., the rats were laparotomized and stomach was excised. Esophagus was clipped. A 1% formalin solution (8 mL) was infused to the esophagus, and duodenum was clipped. The stomach was immersed in a 1% formalin solution for 10 min. or more, and sectioned along the line from duodenum to greater curvature of the stomach. After washing the stomach, the total length (mm^2) of the site (hemorrhage site: detachment of mucosa-ulcer) stained with Evan's Blue was measured with a counter under a stereomicroscope and recorded.

| Structure (SMILES) | IC50 (human COX-1) | ID30 (Male SD rats [1]) | IC50 (human COX-2) | ID50 (Male ICR-mice) | HSP27/GAPDH (x10^4) (HSP27 gene expression; calibrated with GAPDH expression) | HSP27/GAPDH (% of control) (HSP27 gene expression; relative to vehicle) | Area of lesion (mm^2) (average), Administration after 24 hr-fasting (Male SD rats [2]; after 24 hr-fasting) | Area of lesion (mm^2) (average), Administration without fasting (Male SD rats [2]; without fasting) |
| --- | --- | --- | --- | --- | --- | --- | --- | --- |
| Cc1nn(-c2ccccn2)c2[nH]c3ccc(C(F)(F)F)cc3c(=O)c12 [Compound A, 3-Methyl-1-(2-pyridinyl)-6-(trifluoromethyl)-1,9-dihydro-4H-pyrazolo[3,4-b]quinolin-4-one] | 450 nM | 2.2 mg/kg | 380 nM | 0.9 mg/kg | 197 ± 20 | (277) % of control | 0.2 mm^2 | 0 mm^2 |
| Cc1nn(-c2ccccn2)c2[nH]c3cc(F)c(F)cc3c(=O)c12 [Compound B, 6,7-Difluoro-3-methyl-1-(2-pyridinyl)-1,9-dihydro-4H-pyrazolo[3,4-b]quinolin-4-one] | 527 nM |  | 295 nM |  |  |  |  |  |
| Cc1nn(-c2ccccn2)c2[nH]c3cc(F)c(Cl)cc3c(=O)c12 [Compound C, 6-Chloro-7-fluoro-3-methyl-1-(2-pyridinyl)-1,9-dihydro-4H-pyrazolo[3,4-b]quinolin-4-one] | 263 nM |  | 213 nM |  |  |  |  |  |
| O=c1c2cc(Cl)ccc2[nH]c2c1cnn2-c1ccccn1 [Compound D, 6-Chloro-1-(2-pyridinyl)-1,9-dihydro-4H-pyrazolo[3,4-b]quinolin-4-one] | 600 nM |  | 360 nM |  |  |  |  |  |
